# PubChem BioAssay AID1963437 (Molecular Pharmacology Branch, DTP, NCI, 2024)
# pIC50: −log10 of the molar value.
# Test system: OVCAR-8 complex spheroid, growth inhibition
# Test: Anticancer human tumor OVCAR-8 cell line growth inhibition [Asc];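 further: spheroids exposed to agents for 7 days before readout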;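 on viability, T/C: percent viability relative to DMSO vehicle wells taken as 100%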
# Settings: for pIC50: curve of first compound; for viability, T/C: stronger effect = lower value
# Outline: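 Concentration series start at each agent's clinical Cmax, or at 10 microM when none is established, and drop in half-log steps; agents are applied alone or together to complex spheroids built with HUVEC and hMSC.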
structure (smiles),measurement,setting,value
Cc1nc(N2CCC3(CC2)COC(C)C3N)c(CO)nc1Sc1ccnc(N)c1Cl (centres undefined) + CNC(C)C(=O)NC1CN(S(=O)(=O)c2cccc(S(=O)(=O)N3CCC4CCC(C(=O)NC(c5ccccc5)c5ccccc5)N4C(=O)C(NC(=O)C(C)NC)C3)c2)CCC2CCC(C(=O)NC(c3ccccc3)c3ccccc3)N2C1=O,pIC50,second compound 0.00316 µM,< 5.52
same,pIC50,second compound 0.01 µM,< 5.52
same,pIC50,second compound 0.0316 µM,< 5.52
same,pIC50,second compound 0.1 µM,< 5.52
same,pIC50,second compound 0.316 µM,< 5.52
same,pIC50,second compound 1 µM,< 5.52
same,"viability, T/C","second compound 0.00316 µM, first compound 0.00949 µM",130%
same,"viability, T/C","second compound 0.00316 µM, first compound 0.03 µM",136%
same,"viability, T/C","second compound 0.00316 µM, first compound 0.0949 µM",208%
same,"viability, T/C","second compound 0.00316 µM, first compound 0.3 µM",235%
same,"viability, T/C","second compound 0.00316 µM, first compound 0.949 µM",260%
same,"viability, T/C","second compound 0.00316 µM, first compound 3 µM",245%
same,"viability, T/C","second compound 0.01 µM, first compound 0.00949 µM",111%
same,"viability, T/C","second compound 0.01 µM, first compound 0.03 µM",130%
same,"viability, T/C","second compound 0.01 µM, first compound 0.0949 µM",163%
same,"viability, T/C","second compound 0.01 µM, first compound 0.3 µM",251%
same,"viability, T/C","second compound 0.01 µM, first compound 0.949 µM",263%
same,"viability, T/C","second compound 0.01 µM, first compound 3 µM",237%
same,"viability, T/C","second compound 0.0316 µM, first compound 0.00949 µM",93%
same,"viability, T/C","second compound 0.0316 µM, first compound 0.03 µM",130%
same,"viability, T/C","second compound 0.0316 µM, first compound 0.0949 µM",166%
same,"viability, T/C","second compound 0.0316 µM, first compound 0.3 µM",205%
same,"viability, T/C","second compound 0.0316 µM, first compound 0.949 µM",248%
same,"viability, T/C","second compound 0.0316 µM, first compound 3 µM",224%
same,"viability, T/C","second compound 0.1 µM, first compound 0.00949 µM",86.7%
same,"viability, T/C","second compound 0.1 µM, first compound 0.03 µM",111%
same,"viability, T/C","second compound 0.1 µM, first compound 0.0949 µM",155%
same,"viability, T/C","second compound 0.1 µM, first compound 0.3 µM",166%
same,"viability, T/C","second compound 0.1 µM, first compound 0.949 µM",208%
same,"viability, T/C","second compound 0.1 µM, first compound 3 µM",171%
same,"viability, T/C","second compound 0.316 µM, first compound 0.00949 µM",70.7%
same,"viability, T/C","second compound 0.316 µM, first compound 0.03 µM",82.6%
same,"viability, T/C","second compound 0.316 µM, first compound 0.0949 µM",109%
same,"viability, T/C","second compound 0.316 µM, first compound 0.3 µM",169%
same,"viability, T/C","second compound 0.316 µM, first compound 0.949 µM",140%
same,"viability, T/C","second compound 0.316 µM, first compound 3 µM",110%
same,"viability, T/C","second compound 1 µM, first compound 0.00949 µM",81.5%
same,"viability, T/C","second compound 1 µM, first compound 0.03 µM",95.1%
same,"viability, T/C","second compound 1 µM, first compound 0.0949 µM",119%
same,"viability, T/C","second compound 1 µM, first compound 0.3 µM",123%
same,"viability, T/C","second compound 1 µM, first compound 0.949 µM",116%
same,"viability, T/C","second compound 1 µM, first compound 3 µM",75.1%
O=C(c1cc(Cc2n[nH]c(=O)c3ccccc23)ccc1F)N1CCN(C(=O)C2CC2)CC1 + Cc1c(S(C)(=O)=O)c(-c2cc(F)cc(N3CCN(c4ccc(NS(=O)(=O)c5ccc(NC(CCN6CCC(C(=O)OCCCP(=O)(O)O)CC6)CSc6ccccc6)c(S(=O)(=O)C(F)(F)F)c5)cc4)CC3)c2)c(-c2ccc(Cl)cc2)n1C(C)C,pIC50,second compound 0.0316 µM,< 5.00
same,pIC50,second compound 0.1 µM,< 5.00
same,pIC50,second compound 0.316 µM,< 5.00
same,pIC50,second compound 1 µM,< 5.00
same,pIC50,second compound 3.16 µM,< 5.00
same,pIC50,second compound 10 µM,< 5.00
same,"viability, T/C","second compound 0.0316 µM, first compound 0.0316 µM",95.1%
same,"viability, T/C","second compound 0.0316 µM, first compound 0.1 µM",97%
same,"viability, T/C","second compound 0.0316 µM, first compound 0.316 µM",88.2%
same,"viability, T/C","second compound 0.0316 µM, first compound 1 µM",102%
same,"viability, T/C","second compound 0.0316 µM, first compound 3.16 µM",137%
same,"viability, T/C","second compound 0.0316 µM, first compound 10 µM",114%
same,"viability, T/C","second compound 0.1 µM, first compound 0.0316 µM",100%
same,"viability, T/C","second compound 0.1 µM, first compound 0.1 µM",87.9%
same,"viability, T/C","second compound 0.1 µM, first compound 0.316 µM",92.5%
same,"viability, T/C","second compound 0.1 µM, first compound 1 µM",98.2%
same,"viability, T/C","second compound 0.1 µM, first compound 3.16 µM",115%
same,"viability, T/C","second compound 0.1 µM, first compound 10 µM",137%
same,"viability, T/C","second compound 0.316 µM, first compound 0.0316 µM",103%
same,"viability, T/C","second compound 0.316 µM, first compound 0.1 µM",101%
same,"viability, T/C","second compound 0.316 µM, first compound 0.316 µM",105%
same,"viability, T/C","second compound 0.316 µM, first compound 1 µM",110%
same,"viability, T/C","second compound 0.316 µM, first compound 3.16 µM",161%
same,"viability, T/C","second compound 0.316 µM, first compound 10 µM",130%
same,"viability, T/C","second compound 1 µM, first compound 0.0316 µM",132%
same,"viability, T/C","second compound 1 µM, first compound 0.1 µM",96.7%
same,"viability, T/C","second compound 1 µM, first compound 0.316 µM",120%
same,"viability, T/C","second compound 1 µM, first compound 1 µM",120%
same,"viability, T/C","second compound 1 µM, first compound 3.16 µM",152%
same,"viability, T/C","second compound 1 µM, first compound 10 µM",109%
same,"viability, T/C","second compound 3.16 µM, first compound 0.0316 µM",134%
same,"viability, T/C","second compound 3.16 µM, first compound 0.1 µM",106%
same,"viability, T/C","second compound 3.16 µM, first compound 0.316 µM",100%
same,"viability, T/C","second compound 3.16 µM, first compound 1 µM",104%
same,"viability, T/C","second compound 3.16 µM, first compound 3.16 µM",140%
same,"viability, T/C","second compound 3.16 µM, first compound 10 µM",107%
same,"viability, T/C","second compound 10 µM, first compound 0.0316 µM",125%
same,"viability, T/C","second compound 10 µM, first compound 0.1 µM",107%
same,"viability, T/C","second compound 10 µM, first compound 0.316 µM",112%
same,"viability, T/C","second compound 10 µM, first compound 1 µM",124%
same,"viability, T/C","second compound 10 µM, first compound 3.16 µM",159%
same,"viability, T/C","second compound 10 µM, first compound 10 µM",98.9%
